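Test compounds were applied to cells in 96-well plates for 48 hours at 5 doses. The concentration for 50% growth inhibition is given as GI50.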 Calls of active or inactive are those of the source. Cut-off read from the data, not from the text of the source: active = GI50 up to about 1.1 µM and inactive = higher.
How the values were obtained:
Test in all cases: NCI-60 cell line screen, 48 h
KM-20L2 = system: KM-20L2
DLD-1 = system: DLD-1
SNB-78 = system: SNB-78
XF498 = system: XF498
HOP-18 = system: HOP-18
DMS-273 = system: DMS-273
DMS-114 = system: DMS-114
LXFL 529 = system: LXFL 529
RXF 631 = system: RXF 631

Row | Structure (SMILES) | GI50 (KM-20L2) | GI50 (DLD-1) | GI50 (SNB-78) | GI50 (XF498) | GI50 (HOP-18) | GI50 (DMS-273) | GI50 (DMS-114) | GI50 (LXFL 529) | GI50 (RXF 631)
1 | CC1(C)OCC(C(O)C2OC(C)(C)OC2/C=N\O)O1 (stereo unspecified) | > 100 µM (inactive) | > 100 µM (inactive) | > 100 µM (inactive) | > 100 µM (inactive) | 37.5 µM (inactive) | > 100 µM (inactive) | > 100 µM (inactive) | > 100 µM (inactive) | 
2 | O=C(O)CCCCCCC[C@@H]1S[C@H]1CCCCCCO | > 100 µM (inactive) | > 100 µM (inactive) | > 100 µM (inactive) | > 100 µM (inactive) | > 100 µM (inactive) | > 100 µM (inactive) | > 100 µM (inactive) |  | 
3 | CC1=CC(C)(C)N=C2SC(c3ccc(Cl)cc3)=NN12 | 22.5 µM (inactive) | 19.5 µM (inactive) | 59.2 µM (inactive) | 14.2 µM (inactive) | 21 µM (inactive) | 38 µM (inactive) | 23.5 µM (inactive) | 32.4 µM (inactive) | 
4 | CCOC(=O)CNc1nnnn1C1OC(CO)C(O)C1O (stereo unspecified) | > 100 µM (inactive) | > 100 µM (inactive) | > 100 µM (inactive) | > 100 µM (inactive) |  | > 100 µM (inactive) | > 100 µM (inactive) | > 100 µM (inactive) | 
5 | C[C@]12CCC(=O)C=C1CC[C@@H]1[C@@H]2[C@@H](O)C[C@@]2(C)[C@H]1CC[C@]2(O)C(=O)COC(=O)COCC(=O)O | > 100 µM (inactive) | > 100 µM (inactive) | 20.9 µM (inactive) | > 100 µM (inactive) | > 100 µM (inactive) | > 100 µM (inactive) | > 100 µM (inactive) |  | 
6 | CC1(C)C2C=CC1C(=O)CC2 (stereo unspecified) | > 100 µM (inactive) | > 100 µM (inactive) | > 100 µM (inactive) | > 100 µM (inactive) | > 100 µM (inactive) | > 100 µM (inactive) |  | > 100 µM (inactive) | > 100 µM (inactive)
7 | CC1CCC(C(C)C)C(O[C@@H]2OC(=O)C[C@@H]2Sc2ccccc2)C1 (stereo partly specified) | > 10 µM (inactive) | 33.1 µM (inactive) | 25.3 µM (inactive) |  |  | 18.4 µM (inactive) | 19.5 µM (inactive) | 19.1 µM (inactive) | 21.2 µM (inactive)
8 | COC(=O)C1CCC2(CC1)NC(=O)NC2=O (stereo unspecified) | > 100 µM (inactive) | > 100 µM (inactive) | > 100 µM (inactive) | > 100 µM (inactive) | > 100 µM (inactive) | > 100 µM (inactive) | > 100 µM (inactive) | > 100 µM (inactive) | > 100 µM (inactive)
9 | N#Cc1cnsc1 | > 100 µM (inactive) | > 100 µM (inactive) | > 100 µM (inactive) | > 100 µM (inactive) | > 100 µM (inactive) | > 100 µM (inactive) | > 100 µM (inactive) | > 100 µM (inactive) | > 100 µM (inactive)
10 | CC(C)(C)N/N=C(\Cc1occc(=O)c1O)C(=O)Nc1ccc([N+](=O)[O-])cc1[N+](=O)[O-] | > 100 µM (inactive) |  | > 100 µM (inactive) | > 100 µM (inactive) | > 100 µM (inactive) | > 100 µM (inactive) | > 100 µM (inactive) | > 100 µM (inactive) | > 100 µM (inactive)
11 | O=C1CCC(c2nc3cc(Cl)ccc3o2)C(=O)N1 (stereo unspecified) | > 100 µM (inactive) | > 100 µM (inactive) | > 100 µM (inactive) |  | > 100 µM (inactive) | > 100 µM (inactive) | > 100 µM (inactive) | > 100 µM (inactive) | > 100 µM (inactive)
12 | O=C(CCBr)N1CCN(C(=O)CCBr)CC1 [PIPOBROMAN] | 119 µM (inactive) | 90.2 µM (inactive) | 114 µM (inactive) | 66.7 µM (inactive) | 121 µM (inactive) | 28.8 µM (inactive) | 50.6 µM (inactive) | 71.6 µM (inactive) | 55.1 µM (inactive)
13 | O=C(O/N=C1\CCCC\C1=C/c1ccccc1)c1ccc([N+](=O)[O-])cc1 | > 100 µM (inactive) | 80 µM (inactive) | > 100 µM (inactive) |  | > 100 µM (inactive) | > 100 µM (inactive) | 61.9 µM (inactive) | 54 µM (inactive) | > 100 µM (inactive)
14 | CCCCCCCCCCCCCCC(O)C1CCC(C(O)CCC(O)CCCCCC(O)CC2=CC(C)OC2=O)O1 (stereo unspecified) | 3.4 µM (inactive) | 2.31 µM (inactive) | 1.49 µM (inactive) | 1.12 µM (active) |  | 1.4 µM (inactive) | < 0.01 µM (active) | 2.11 µM (inactive) | 2.94 µM (inactive)
15 | N#CNC(=N)NC(=O)/C=C/C=C/c1ccc(Cl)cc1 | > 100 µM (inactive) | > 100 µM (inactive) | 55.1 µM (inactive) |  | > 100 µM (inactive) | > 100 µM (inactive) | 84.5 µM (inactive) | 47.4 µM (inactive) | 
16 | CCCCCCCCSC(SCCCCCCCC)=C1C(=O)N(c2ccccc2)N=C1C | 55.7 µM (inactive) | 21.4 µM (inactive) | > 100 µM (inactive) |  | 61.7 µM (inactive) | 49.4 µM (inactive) | 28.4 µM (inactive) | 43.4 µM (inactive) | > 100 µM (inactive)
17 | COC(=O)C(C(=O)C(=O)Nc1c(Cl)cc([N+](=O)[O-])cc1Cl)c1csc(-n2nc(C3=CCCCC3)cc2-c2ccccc2)n1 (stereo unspecified) | 29 µM (inactive) | 28.8 µM (inactive) | 40 µM (inactive) |  | 10.3 µM (inactive) | 74.5 µM (inactive) |  | 40.7 µM (inactive) | 45.6 µM (inactive)
18 | COC1=CC(=O)[C@]2(C)[C@H](C1=O)C(C)[C@H]2c1ccccc1 (stereo partly specified) |  | > 100 µM (inactive) | > 100 µM (inactive) | > 100 µM (inactive) |  | > 100 µM (inactive) |  | > 100 µM (inactive) | > 100 µM (inactive)
19 | CN(C)CCNc1ccc2nnn3c4ccc(O)cc4c(=O)c1c23 | 7.82 µM (inactive) | 3.4 µM (inactive) | 12.7 µM (inactive) |  | 21.3 µM (inactive) |  | 5.79 µM (inactive) | 3.01 µM (inactive) | 
20 | Cc1c2ccncc2c(C)c2c1[nH]c1ccc(O)c(OCC(F)(F)F)c12 | 12.2 µM (inactive) | 8 µM (inactive) | 4.47 µM (inactive) | 12.6 µM (inactive) |  | 1.79 µM (inactive) | 2.44 µM (inactive) | 5.12 µM (inactive) | 
21 | COc1c2ccoc2c(S(=O)(=O)Nc2ccc(Cl)cc2)c2oc(C)cc(=O)c12 | > 100 µM (inactive) | > 100 µM (inactive) | > 100 µM (inactive) | > 85.1 µM (inactive) | > 54.8 µM (inactive) | > 100 µM (inactive) | > 68.2 µM (inactive) |  | 
22 | O=C(C#Cc1cnc(O)nc1O)c1ccccc1Cl |  | 15.5 µM (inactive) | 24.8 µM (inactive) |  | 20 µM (inactive) | 19.1 µM (inactive) | 21.9 µM (inactive) |  | 
23 | COc1cccc(NC(=O)C(=O)C(C(=O)c2ccccc2F)C2OC(=O)c3ccccc32)c1 (stereo unspecified) | 33.3 µM (inactive) | 36.6 µM (inactive) | 15.5 µM (inactive) |  |  | 29 µM (inactive) |  | 33.6 µM (inactive) | 
24 | COC(=O)/C=C\C1C(C(=O)OC)C2(C(=O)OC)CCC1(C(=O)OC)N2 (stereo unspecified) | 31.9 µM (inactive) | 3.25 µM (inactive) | 10.2 µM (inactive) | 19.1 µM (inactive) | 15.1 µM (inactive) | 18.2 µM (inactive) |  | 6.75 µM (inactive) | 20.8 µM (inactive)
25 | CC(=O)OCC1OC(n2cnc3c(I)nc(I)nc32)C(OC(C)=O)C1OC(C)=O (stereo unspecified) | 17.6 µM (inactive) | 10.8 µM (inactive) |  | 20.9 µM (inactive) |  | 6.84 µM (inactive) | 4.21 µM (inactive) | 13.4 µM (inactive) | 15.5 µM (inactive)
26 | Cn1c(=O)nc2n(-c3ccc(O)cc3)c3ccccc3nc-2c1=O | 64.3 µM (inactive) | > 100 µM (inactive) | > 100 µM (inactive) | 60 µM (inactive) | > 100 µM (inactive) | 11.5 µM (inactive) | 22.5 µM (inactive) | > 100 µM (inactive) | 63.5 µM (inactive)
27 | CCC(C)(C)NC1=C(NC(C)=O)C(=O)c2ccccc2C1=O | > 75 µM (inactive) | 43.1 µM (inactive) | 35.2 µM (inactive) | 14.4 µM (inactive) |  | 53.5 µM (inactive) |  | 45.6 µM (inactive) | 
28 | CCCCCCCCCCNC1CC(OC2CC(O)(C(O)CO)Cc3c(O)c4c(c(O)c32)C(=O)c2c(OC)cccc2C4=O)OC(C)C1O (stereo unspecified) | 1.69 µM (inactive) | 1.13 µM (inactive) | 1.84 µM (inactive) | 1.91 µM (inactive) | 1.87 µM (inactive) | 1.79 µM (inactive) | 1.46 µM (inactive) | 0.731 µM (active) | 1.53 µM (inactive)
29 | COc1ccc(-c2cc(-c3ccco3)c(C#N)c(=O)[nH]2)cc1 | > 100 µM (inactive) | > 100 µM (inactive) | > 100 µM (inactive) |  | 15.9 µM (inactive) | 31 µM (inactive) | 79.6 µM (inactive) | 44 µM (inactive) | > 100 µM (inactive)

Reference: ChEMBL document CHEMBL1201862, “PubChem BioAssay data set” (2004)
